Assay results as given in US6121248A, “Anti-viral agent” (priority 1998, dated 2000).
Converted amounts (≈) assume the structure as drawn. Where two headings read alike, the source gives them in different places.

Legend:
cytomegalovirus = assay: Anti-viral activity against cytomegalovirus, microplaque reduction method; assay type: cell-based, human cytomegalovirus (AD 169 strain); conditions: for EC50: Human betaherpesvirus 5, MRC5, 144 h, human cytomegalovirus AD 169 strain, MRC-5 cells, 37° C., day 6, read-out: ED50 (50% effective density); for SI (selectivity index, CC50/ED50): cytomegalovirus
Description: Determination of Anti-viral Activity against Cytomegalovirus
(§1) The anti-viral activity against cytomegalovirus was also determined by the microplaque reduction method in the same manner as in Example 1. That is, MRC-5 cells were cultured in a 96-well microtiter plate until the cells reached the confluent state. Each of the compounds being tested was added to the wells to which a preparation of human cytomegalovirus (AD 169 strain) was subsequently added. The plate was cultured at 37° C. in a CO2 incubator. On day 6 after the culture, physiological saline containing 10% formalin was added to the wells and the plate was allowed to stand overnight to fix the cells to the wells. After washing the plate, the cells were stained with a crystal violet solution and then washed. The focus formation by cytomegalovirus was observed microscopically and the number of the foci was counted.
(§2) The concentration of each compound that inhibits by 50% of the number of foci observed in a group containing no compound was determined as a 50% effective density (ED50).
(§3) The selectivity index (SI), which is the ratio of the cytotoxic concentration to the anti-virally effective density, was determined by the equation: […]

varicella-zoster virus = assay: Anti-viral activity against varicella-zoster virus, microplaque reduction method; assay type: cell-based, varicella-zoster virus (HOSEN strain); conditions: for EC50: Human alphaherpesvirus 3, MRC5, 72 h, varicella-zoster virus HOSEN strain, MRC-5 cells, 35° C., day 3, read-out: ED50 (50% effective density); for SI (selectivity index, CC50/ED50): varicella-zoster virus
Description: Determination of Anti-viral Activity against Varicella-zoster Virus
(§4) The anti-viral activity against varicella-zoster virus was determined by the microplaque reduction method. That is, MRC-5 cells were cultured in a 96-well microtiter plate until the cells reached the confluent state. Each of the compounds being tested was added to the wells to which a preparation of varicella-zoster virus (HOSEN strain) was subsequently added. The plate was cultured at 35° C. in a CO2 incubator. On day 3 after the culture, physiological saline containing 10% formalin was added to the wells and the plate was allowed to stand overnight to fix the cells to the wells. After wasing the plate, the cells were stained with a crystal violet solution and then washed. The focus formation by varicella-zoster virus was observed microscopically and the number of the foci was counted.
as §2, §3

[1] = Cytotoxicity in virus-free MRC-5 cells (Example 1); assay type: cell-based; conditions: human
Description: as §4
The virus-free group in which, in place of the preparation of varicella-zoster virus, the culture medium was added to the MRC-5 cells was also cultured in the same manner.

[2] = Cytotoxicity in virus-free MRC-5 cells (Example 2); assay type: cell-based; conditions: human
Description: as §1
The virus-free group in which, in place of the preparation of cytomegalovirus, the culture medium was added to the MRC-5 cells was also cultured in the same manner.

[3] = Acute toxicity test, variation of body weight of mice; assay type: in vivo, Mouse: ICR; conditions: 1 or 2 g/kg ip., male ICR mice
Description: With respect to 2-thio-5-iodocytosine arabinoside (5-I-AraSC) which was evidenced to have the anti-viral effect in vitro, the acute toxicity was also determined in the following manner.
Mouse: ICR, male, 4 weeks;
Drug: 5-I-AraSC, 1 or 2 g/kg, ip., n=6.
The drug 5-I-AraSC was administered in a dosage of 1 or 2 g/kg to each mouse intraperitoneally, and the variation of a body weight of each mouse was examined.

[4] = MRC-5 cells, virus-free, cultured as in varicella-zoster test (day 3), read-out: CC50 (50% cytotoxic concentration)

Nc1nc(=S)n([C@@H]2O[C@H](CO)[C@@H](O)[C@@H]2O)cc1Br [2-thio-5-bromocytosine arabinoside]
EC50 (cytomegalovirus): 2.4 µg/mL (≈ 7.1 µM)
SI (selectivity index, CC50/ED50) (cytomegalovirus): > 42
EC50 (varicella-zoster virus): 7.5 µg/mL (≈ 22.2 µM)
SI (selectivity index, CC50/ED50) (varicella-zoster virus): > 13
CC50 at 72 h ([1]; mrc-5 cells): > 100 µg/mL
CC50 at 144 h ([2]; mrc-5 cells): > 100 µg/mL

Nc1nc(=S)n([C@@H]2O[C@H](CO)[C@@H](O)[C@@H]2O)cc1F [2-thio-5-fluorocytosine arabinoside]
EC50 (cytomegalovirus): 0.16 µg/mL (≈ 0.577 µM)
SI (selectivity index, CC50/ED50) (cytomegalovirus): > 625
EC50 (varicella-zoster virus): 1.65 µg/mL (≈ 5.95 µM)
SI (selectivity index, CC50/ED50) (varicella-zoster virus): > 60
CC50 at 72 h [1, 4]: > 100 µg/mL
CC50 at 144 h ([2]; MRC-5 cells, virus-free, cultured as in cytomegalovirus test (day 6), read-out: CC50 (50% cytotoxic concentration)): > 100 µg/mL

Nc1nc(=S)n([C@@H]2O[C@H](CO)[C@@H](O)[C@@H]2O)cc1I [2-thio-5-iodocytosine arabinoside]
EC50 (cytomegalovirus): 0.26 µg/mL (≈ 0.675 µM)
SI (selectivity index, CC50/ED50) (cytomegalovirus): > 385
EC50 (varicella-zoster virus): 0.7 µg/mL (≈ 1.82 µM)
SI (selectivity index, CC50/ED50) (varicella-zoster virus): > 143
CC50 at 72 h ([1]; mrc-5 cells): > 100 µg/mL
CC50 at 144 h ([2]; mrc-5 cells): > 100 µg/mL
death of the mice ([3]; during the test): No death of the mice was observed during the test
acute toxicity ([3]; overall conclusion): not so strong

O=c1[nH]c(=S)n([C@@H]2O[C@H](CO)[C@@H](O)[C@@H]2O)cc1I [2-thio-5-iodouracil arabinoside]
EC50 (varicella-zoster virus): 3.1 µg/mL (≈ 8.03 µM)
SI (selectivity index, CC50/ED50) (varicella-zoster virus): 6.5
CC50 at 72 h [1, 4]: 20 µg/mL (≈ 51.8 µM)
